test system: Female BALB/c mice; assay: IFN-γ Elispot cellular immunity test, spleen lymphocytes of mice immunized with IN002.5.1 mRNA LNP; assay type: in vivo; conditions: 50 μL IM, spleen on 7th day after immunization, FIG. 2-4

Structure (SMILES)	Cellular immunity effect (IFN-γ Elispot) compared to ALC0315
CCCCCCC(CCCCCC)OC(=O)CCCCCCCCC(CCCCCCCCC(=O)OC(CCCCCC)CCCCCC)OC(=O)N(CCCN(C)C)CCC(=O)OCCCC [Compound 264]	better cellular immunity effect
CCCCCCCOC(=O)CCN(CCCN(C)C)C(=O)OC(CCCCCCCCC(=O)OC(CCCCCC)CCCCCC)CCCCCCCCC(=O)OC(CCCCCC)CCCCCC [Compound 267]	better cellular immunity effect
CCCCCCC(CCCCCC)OC(=O)CCCCCCCCC(CCCCCCCCC(=O)OC(CCCCCC)CCCCCC)OC(=O)N(CCCN(C)C)CC(=O)OCCCC [Compound 270]	better cellular immunity effect
CCCCCCOC(=O)CN(CCCN(C)C)C(=O)OC(CCCCCCCCC(=O)OC(CCCCCC)CCCCCC)CCCCCCCCC(=O)OC(CCCCCC)CCCCCC [Compound 272]	better cellular immunity effect
CCCCCCCOC(=O)CN(CCCN(C)C)C(=O)OC(CCCCCCCCC(=O)OC(CCCCCC)CCCCCC)CCCCCCCCC(=O)OC(CCCCCC)CCCCCC [Compound 273]	better cellular immunity effect

From US20250250227A1, “AMINO LIPID COMPOUND, PREPARATION METHOD THEREFOR, COMPOSITION THEREOF AND USE THEREOF” (SHENZHEN SHENXIN BIOTECHNOLOGY CO., LTD., priority 2022, published 2025)
